From patent US11286281B2, “Homodetic cyclic peptides targeting alpha-4-beta-7 integrin” (priority 2017, dated 2022)
Several values for one entry are separate records, joined by “and”; a condition that tells them apart may be missing. Equal entries are not always repeated. Numbered stars: 1 amine (or outer) side, 2 acyl side, 3 side chain; on linkers, the order of the positions; unused ones are H or OH. Square brackets hold non-standard residues; d marks the D form. Peptide text beside a SMILES is read from it. X1 = O=C(c1ccc(-c2ccc(N3CCNCC3)cc2)c(CN[*:1])c1)[*:2]

Biological target: T1, integrin α4β7 (Homo sapiens, UniProt P13612+P26010)
T1 sequence (P13612 34-1032): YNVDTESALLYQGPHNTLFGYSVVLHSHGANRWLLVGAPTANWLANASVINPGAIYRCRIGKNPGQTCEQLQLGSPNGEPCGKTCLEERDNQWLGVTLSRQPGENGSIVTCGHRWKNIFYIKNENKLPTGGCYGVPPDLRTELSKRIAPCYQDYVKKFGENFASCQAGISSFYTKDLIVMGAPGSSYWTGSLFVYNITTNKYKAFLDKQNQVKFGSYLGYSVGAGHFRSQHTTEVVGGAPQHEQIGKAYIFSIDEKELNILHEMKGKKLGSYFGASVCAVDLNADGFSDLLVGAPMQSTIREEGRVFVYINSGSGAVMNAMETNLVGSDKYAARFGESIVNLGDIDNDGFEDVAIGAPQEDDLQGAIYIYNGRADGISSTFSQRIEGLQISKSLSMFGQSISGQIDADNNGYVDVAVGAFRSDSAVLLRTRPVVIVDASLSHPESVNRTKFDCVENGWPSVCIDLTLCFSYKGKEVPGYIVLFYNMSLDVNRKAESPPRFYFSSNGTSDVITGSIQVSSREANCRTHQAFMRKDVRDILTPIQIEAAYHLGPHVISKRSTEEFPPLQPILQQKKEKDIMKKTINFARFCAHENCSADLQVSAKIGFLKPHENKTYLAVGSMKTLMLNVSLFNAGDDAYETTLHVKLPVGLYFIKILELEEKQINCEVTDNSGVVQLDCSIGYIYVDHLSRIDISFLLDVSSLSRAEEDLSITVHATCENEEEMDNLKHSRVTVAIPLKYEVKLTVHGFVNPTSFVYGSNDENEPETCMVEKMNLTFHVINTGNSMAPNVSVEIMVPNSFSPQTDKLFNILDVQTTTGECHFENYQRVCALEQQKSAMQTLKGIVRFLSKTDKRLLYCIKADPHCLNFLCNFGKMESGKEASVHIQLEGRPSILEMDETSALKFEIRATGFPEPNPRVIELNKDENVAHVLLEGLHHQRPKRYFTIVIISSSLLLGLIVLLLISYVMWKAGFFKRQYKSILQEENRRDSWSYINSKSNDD
T1 sequence (P26010 20-798): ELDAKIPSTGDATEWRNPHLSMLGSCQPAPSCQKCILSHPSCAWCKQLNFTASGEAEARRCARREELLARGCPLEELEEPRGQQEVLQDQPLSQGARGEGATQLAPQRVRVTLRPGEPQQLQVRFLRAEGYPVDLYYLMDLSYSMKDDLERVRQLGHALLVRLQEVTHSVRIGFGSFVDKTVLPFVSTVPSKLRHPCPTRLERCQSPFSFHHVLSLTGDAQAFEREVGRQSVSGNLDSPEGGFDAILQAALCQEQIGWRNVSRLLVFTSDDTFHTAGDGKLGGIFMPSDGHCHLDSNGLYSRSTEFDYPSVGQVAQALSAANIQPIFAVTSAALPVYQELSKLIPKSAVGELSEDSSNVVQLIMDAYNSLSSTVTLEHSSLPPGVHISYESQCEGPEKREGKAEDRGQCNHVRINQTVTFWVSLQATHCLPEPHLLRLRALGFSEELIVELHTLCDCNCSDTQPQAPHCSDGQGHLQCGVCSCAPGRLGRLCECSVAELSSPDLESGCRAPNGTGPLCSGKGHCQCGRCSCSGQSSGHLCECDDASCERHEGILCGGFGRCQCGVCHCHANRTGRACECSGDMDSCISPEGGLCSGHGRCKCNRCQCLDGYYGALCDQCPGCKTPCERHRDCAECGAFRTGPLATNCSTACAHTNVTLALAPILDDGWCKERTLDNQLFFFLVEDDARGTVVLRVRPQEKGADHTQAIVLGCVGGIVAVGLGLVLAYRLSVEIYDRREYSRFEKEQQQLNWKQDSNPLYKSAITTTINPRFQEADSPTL
Assay: Integrin α4β7-MAdCAM human cell adhesion assay (RPMI8866 cells)
Format: cell-based
Design: host or cells: RPMI8866 human cells
Settings: for IC50: adhesion of RPMI8866 cells to MAdCAM-1 coated plates
Description: RPM18866 human cells (Sigma #95041316) were cultured in RPMI 1640 medium (HyClone SH30027.1) supplemented with 10% FBS (Seradigm) and 1% Penicillin-Streptomycin. […] RPM18866 cells were resuspended at 10 million cells/ml in PBS containing […] and incubated at 37° C. for 30 min in a 50 ml tube. […] The plate was emptied by inverting and blotting on paper towels and washed manually twice with PBS. 100 μl PBS was then added to each well. The fluorescence was read (Ex495/Em515) using a plate reader (Tecan Infinite 1000). To calculate the dose response, the fluorescence value of control wells not containing cells was subtracted from each test well.

| SMILES | fold difference in IC50 between RAMOS and RPMI8866 cell adhesion assays, in favor of integrin α4β7 (RAMOS (α4β1) versus RPMI8866 (α4β7)) | IC50 |
| --- | --- | --- |
| CC(C)C[C@@H]1NC(=O)c2ccc(-c3ccc(N4CCNCC4)cc3)c(c2)CNC(=O)[C@@H]2CCCN2C(=O)[C@H](C)NC(=O)[C@H]([C@@H](C)O)NC(=O)[C@H](CC(=O)O)NC1=O [Compound 8] (cyclo(P[X1]LDTA)) | 2.2 fold | ~202 nM and 202 nM |
| CC(C)C[C@@H]1NC(=O)c2ccc(-c3ccc(N4CCN(C(=O)COCC(=O)N5CCN(c6ccc(-c7ccc8cc7CNC(=O)[C@@H]7CCCN7C(=O)[C@H](C)NC(=O)[C@H]([C@@H](C)O)NC(=O)[C@H](CC(=O)O)NC(=O)[C@H](CC(C)C)NC8=O)cc6)CC5)CC4)cc3)c(c2)CNC(=O)[C@@H]2CCCN2C(=O)[C@H](C)NC(=O)[C@H]([C@@H](C)O)NC(=O)[C@H](CC(=O)O)NC1=O [Compound 17] |  | ~19 nM |
| CC(C)C[C@@H]1NC(=O)c2ccc(-c3ccc(N4CCN(Cc5cccc(CN6CCN(c7ccc(-c8ccc9cc8CNC(=O)[C@@H]8CCCN8C(=O)[C@H](C)NC(=O)[C@H]([C@@H](C)O)NC(=O)[C@H](CC(=O)O)NC(=O)[C@H](CC(C)C)NC9=O)cc7)CC6)c5)CC4)cc3)c(c2)CNC(=O)[C@@H]2CCCN2C(=O)[C@H](C)NC(=O)[C@H]([C@@H](C)O)NC(=O)[C@H](CC(=O)O)NC1=O [Compound 18] |  | 8.4 nM |
